Columns and labels:
[1] = biological target: T1, hPPARδ (Homo sapiens, UniProt Q03181); test: Transfection assay (luciferase reporter), PPARδ; format: cell-based; settings: CV-1 cells, full length PPAR plasmid, 24 hours
T1 construct: Full length PPARs plasmid DNA; expressed in transfected cells; host or cells: CV-1 cells
T1 sequence (Q03181 1-441): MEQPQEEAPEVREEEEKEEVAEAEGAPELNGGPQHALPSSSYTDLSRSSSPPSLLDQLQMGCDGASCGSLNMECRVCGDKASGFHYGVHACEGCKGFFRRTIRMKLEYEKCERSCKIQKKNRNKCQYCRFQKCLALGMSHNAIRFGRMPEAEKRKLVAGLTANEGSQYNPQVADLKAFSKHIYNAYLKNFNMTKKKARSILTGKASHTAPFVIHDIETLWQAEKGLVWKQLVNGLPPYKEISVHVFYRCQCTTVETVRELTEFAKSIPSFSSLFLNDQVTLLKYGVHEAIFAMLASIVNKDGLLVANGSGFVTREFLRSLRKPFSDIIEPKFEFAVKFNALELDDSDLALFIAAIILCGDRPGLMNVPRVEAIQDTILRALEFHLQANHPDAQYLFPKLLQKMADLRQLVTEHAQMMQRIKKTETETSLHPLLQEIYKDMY
Method: The PPARδ activity of the compound represented by formula (I) of the present invention was confirmed by transfection assay. In addition, the selectivity to PPAR subtypes, PPARα and PPARγ was examined. Cytotoxicity was tested by MTT assay and in vivo activity was investigated by animal experiment.
CV-1 cells were used in this assay. The cells were inoculated in a 96-well plate containing DMEM supplemented with 10% FBS, DBS (delipidated) and 1% penicillin/streptomycin and cultured in a 37° C., 5% CO2 incubator. The experiment was performed according to the steps of inoculation, transfection, sample treatment and confirmation. Particularly, CV-1 cells were inoculated in a 96 well-plate (5000 cells/well), followed by transfection 24 hours later. Full length PPARs plasmid DNA, reporter DNA confirming PPARs activity owing to its luciferase activity, β-galactosidase DNA providing information on transfection efficiency, and transfection reagent were used for the transfection. Samples were dissolved in dimethylsulfoxide (DMSO), which were treated to the cells via media at different concentrations. After culturing the cells in the incubator for 24 hours, the cells were lysed by using lysis buffer. Luciferase activity and β-galactosidase activity were measured with Luminometer and a microplate reader. The obtained values of luciferase were modified by the values of β-galactosidase. A graph was made with those values and EC50 was calculated.

[2] = Muscle endurance test (treadmill), treatment during pregnancy and/or lactation; format: in vivo, mice; settings: 10 mg/Kg/day
Method: Muscle Endurance Strengthening and Muscle Function Enhancing Effect
An animal test was performed to confirm muscle endurance strengthening and muscle function enhancing effect of the composition of the present invention. Most muscles are generated in developmental stage. Thus, S14, S46 and S106 (10 mg/Kg/day) were treated to pregnant mice in the period of either pregnancy or lactation or both pregnancy and lactation. Weight gaining and growth rate were not much different between fetuses of the control group and the treatment group. Muscles were observed after removing skin. As a result, muscles of the treatment group were red, unlike the control. ATPase staining and immunostaining were performed. As a result, type I muscle fiber was increased in the treatment group. The role of the changes of the muscle fiber in the enhancement of muscle endurance and muscle function was investigated by using treadmill test. As a result, running time was much extended in the treatment group, compared with the control.

[3] = Muscle endurance test (treadmill) in adult mice with forced exercise; format: in vivo, C57BL/6 mice; settings: 10 mg/kg oral, adult mice at 10 weeks, 30 days treadmill exercise
Method: Particularly, S14, S46 and S106 were orally administered to C57BL/6 mice at 10 weeks at the concentration of 10 mg/kg, during which the mice were forced to exercise. The exercise was performed with treadmill for […] once a day for 30 days, precisely at the speed of 2 meter/min for the first 5 minutes, at 5 meter/min for 5 minutes, at 8 meter/min for 5 minutes and at 20 meter/min for the last 5 minutes. At the finish, muscle endurance and muscle function enhancing effect was tested by using treadmill. As a result, the time (S14 treated group: 1.5 fold, S46 treated group: 1.3 fold, S106 treated group: 1.4 fold increased) and distance (S14 treated group: 1.5 fold, S46 treated group: 1.3 fold, S106 treated group: 1.4 fold increased) of exercise were all increased in the treatment group, compared with the control.

[4] = Morris water maze test, treatment during pregnancy and lactation; format: in vivo; settings: 10 mg/kg oral to pregnant mice in pregnancy and lactation; control 24.2 sec
Method: An animal test was performed to investigate the therapeutic effect of the compound of the present invention on dementia and Parkinson's disease based on the memory improving effect thereof. To confirm the effect of the compound of the present invention in the period of brain development, the compound was orally administered to pregnant mice at the concentration of 10 mg/kg in the periods of pregnancy and lactation. Morris water maze test was performed to detect any changes of the brain functions of the treatment group and the control group. This test facilitates the study of spatial learning and memory, which largely depends on the hippocampus in the brain.

[5] = Morris water maze test in LPS brain disease animal model; format: in vivo, C57BL/6 mice
Method: The therapeutic effect of the compound of the present invention on dementia and Parkinson's disease based on the memory improving effect thereof was investigated using brain disease animal model (C57BL/6 mice at 10 weeks). First, LPS was injected into the mouse brain to construct brain disease animal model. The mice were divided into four groups according to the administration and exercise. The exercise was performed with treadmill at the speed of 2 meter/min for the first 5 minutes, at 5 meter/min for 5 minutes, at 8 meter/min for 5 minutes and at 20 meter/min for the last 5 minutes. At the finish, Morris water maze test was performed. As a result, the therapeutic effect of the compound of the invention on dementia and Parkinson's disease via memory enhancement by the compound and exercise was confirmed in the brain disease animal model.

[6] = treated in pregnancy + lactation

SMILES | EC50 [1] | increasing rate (treatment group/control group), length ([2]; treated in lactation) | increasing rate (treatment group/control group), time ([2]; treated in lactation) | increasing rate (treatment group/control group), length [2, 6] | increasing rate (treatment group/control group), time [2, 6] | increasing rate (treatment group/control group), length ([2]; treated in pregnancy) | increasing rate (treatment group/control group), time ([2]; treated in pregnancy) | distance of exercise, increase compared with the control [3] | time of exercise, increase compared with the control [3] | average time spent to find the platform [4] | Results of water maze test ([5]; Exercise (X)) | Results of water maze test ([5]; Exercise (◯))
Cc1cc(SC(Cc2ccccc2)c2ccc(-c3ccc(C(F)(F)F)cc3)nc2)ccc1OCC(=O)O (stereo not drawn) [Compound 106] | 3.2 nM | 1.8 times | 1.8 times | 3.4 times | 3.2 times | 2.2 times | 2.1 times | 1.4 fold | 1.4 fold | 6.1 s | 23 s | 15 s
Cc1cc(SC(Cc2ccccc2)c2ccc(-c3cc(F)c(F)c(F)c3)cc2)ccc1OCC(=O)O (stereo not drawn) [Compound 46] | 3.7 nM | 1.5 times | 1.5 times | 3.0 times | 2.8 times | 1.9 times | 1.9 times | 1.3 fold | 1.3 fold | 7.8 s | 27 s | 18 s
Cc1cc(SC(Cc2ccccc2)c2ccc(-c3ccc(C(F)(F)F)cc3)cc2)ccc1OCC(=O)O (stereo not drawn) [Compound S14] | 2.6 nM | 2.2 times | 2.1 times | 3.9 times | 3.6 times | 2.5 times | 2.4 times | 1.5 fold | 1.5 fold | 5.2 s | 21 s | 12 s

— patent US8519145B2, “Aryl compounds as PPAR ligands and their use” (Seoul National University Industry Foundation, priority 2006, dated 2013)
